Measured values: ChEMBL document CHEMBL1201862, “PubChem BioAssay data set” (2004)
Counter-ions that a name gives are not always drawn.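 Five compound concentrations were applied to cells in 96-well plates for 48 hours; endpoints were derived by simple linear interpolation of the resulting dose-response curve. GI50: concentration for 50% inhibition of growth.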 Active and inactive are the calls of the source. Rule as the data show it: active = GI50 up to about 1.1 µM and inactive = higher.

Assays:
Test in all cases: NCI tumour cell line growth inhibition, 48 h
NCI-H522 = test system: NCI-H522
SK-MEL-5 = test system: SK-MEL-5
RPMI-8226 = test system: RPMI-8226
UACC-62 = test system: UACC-62
SK-OV-3 = test system: SK-OV-3
MOLT-4 = test system: MOLT-4
HL-60 = test system: HL-60
SK-MEL-28 = test system: SK-MEL-28
COLO 205 = test system: COLO 205
CCRF-CEM = test system: CCRF-CEM
M19-MEL = test system: M19-MEL
SF-295 = test system: SF-295
HT-29 = test system: HT-29
786-0 = test system: 786-0
NCI-H460 = test system: NCI-H460
SNB-78 = test system: SNB-78
T47D = test system: T47D
MDA-MB-435 = test system: MDA-MB-435
MDA-N = test system: MDA-N
PC-3 = test system: PC-3

Measured: GI50

COC(=O)c1sc(=O)n(-c2ccccc2)c1SCc1ccccc1
inactive: NCI-H522 > 100 µM | SK-MEL-5 > 100 µM | RPMI-8226 > 100 µM | UACC-62 > 100 µM | SK-OV-3 > 100 µM | MOLT-4 > 100 µM | HL-60 > 100 µM | SK-MEL-28 > 100 µM | COLO 205 > 100 µM | CCRF-CEM > 100 µM | M19-MEL > 100 µM | SF-295 > 100 µM | HT-29 > 100 µM | 786-0 > 100 µM | NCI-H460 > 100 µM

CCOC(=O)CSC(=O)NCCCl
inactive: NCI-H522 > 100 µM | UACC-62 > 100 µM | SK-OV-3 > 100 µM | SNB-78 > 100 µM | SK-MEL-28 > 100 µM | COLO 205 > 100 µM | SF-295 > 100 µM | HT-29 > 100 µM | 786-0 > 100 µM | NCI-H460 > 100 µM

CC(=O)OCc1ccc(-c2nc(C#N)c(N)o2)o1
inactive: T47D > 10 µM | NCI-H522 > 10 µM | MDA-MB-435 > 10 µM | SK-MEL-5 > 10 µM | RPMI-8226 > 10 µM | MDA-N > 10 µM | UACC-62 > 10 µM | SK-OV-3 > 10 µM | MOLT-4 > 10 µM | HL-60 > 10 µM | SK-MEL-28 > 10 µM | COLO 205 > 10 µM | PC-3 > 10 µM | CCRF-CEM > 10 µM | SF-295 > 10 µM | HT-29 > 10 µM | 786-0 > 10 µM | NCI-H460 > 10 µM

O=C(CCc1ccccc1)CC1OC(=O)C(Cl)=C1Cl (centres undefined)
inactive: NCI-H522 14.5 µM | SK-MEL-5 20.8 µM | RPMI-8226 32.6 µM | UACC-62 17 µM | SK-OV-3 45.6 µM | MOLT-4 33 µM | SNB-78 46.5 µM | SK-MEL-28 16.9 µM | COLO 205 17.2 µM | CCRF-CEM 29.6 µM | M19-MEL 17.7 µM | SF-295 27.4 µM | HT-29 19.2 µM | 786-0 19.1 µM | NCI-H460 33.5 µM

CCCCOC(=O)CC(CC(=O)OCCCC)(OC(C)=O)C(=O)OCCCC [ACETYLTRIBUTYL CITRATE]
inactive: T47D 48.4 µM | NCI-H522 47.5 µM | MDA-MB-435 > 178 µM | SK-MEL-5 16.1 µM | RPMI-8226 16 µM | MDA-N > 170 µM | UACC-62 117 µM | SK-OV-3 > 200 µM | MOLT-4 17.2 µM | HL-60 27.8 µM | SK-MEL-28 > 157 µM | COLO 205 60.1 µM | PC-3 132 µM | CCRF-CEM 76.9 µM | SF-295 91.2 µM | HT-29 60.8 µM | 786-0 > 200 µM | NCI-H460 162 µM

Cc1c(S(=O)(=O)c2ccccc2)c(N)n(CCN(C)C)c1C
inactive: T47D > 100 µM | NCI-H522 > 100 µM | MDA-MB-435 > 100 µM | SK-MEL-5 > 100 µM | RPMI-8226 > 100 µM | MDA-N > 100 µM | UACC-62 > 100 µM | SK-OV-3 > 100 µM | MOLT-4 > 100 µM | HL-60 > 100 µM | SK-MEL-28 > 100 µM | COLO 205 > 100 µM | PC-3 86.9 µM | CCRF-CEM > 100 µM | SF-295 > 100 µM | HT-29 > 100 µM | 786-0 > 100 µM | NCI-H460 > 100 µM

CCOC(=O)C1S/C(=N\c2ccc(Cl)cc2Cl)N=C1C (centres undefined)
inactive: NCI-H522 35.9 µM | SK-MEL-5 48.6 µM | UACC-62 46.9 µM | SNB-78 60.7 µM | HL-60 68.4 µM | SK-MEL-28 > 100 µM | COLO 205 > 100 µM | M19-MEL 86.5 µM | SF-295 32.1 µM | HT-29 > 100 µM | 786-0 53.3 µM | NCI-H460 86.5 µM

C=C1C(=O)OC2C1C(OC(=O)/C(C)=C/C)CC(O)(CCl)C1C(O)C=C(C)C21O (centres undefined)
inactive: T47D 11.9 µM | NCI-H522 1.43 µM | MDA-MB-435 23 µM | SK-MEL-5 11 µM | RPMI-8226 5.68 µM | MDA-N 14.9 µM | UACC-62 12.5 µM | SK-OV-3 47.9 µM | MOLT-4 3.92 µM | HL-60 2.28 µM | SK-MEL-28 13.3 µM | COLO 205 4.58 µM | PC-3 21.7 µM | CCRF-CEM 2.84 µM | SF-295 53 µM | HT-29 15.7 µM | 786-0 4.88 µM | NCI-H460 16.7 µM
